ChEMBL document CHEMBL6153017, “Progress on the mechanism of natural products alleviating androgenetic alopecia” (2024)

Columns and labels:
Assay type in all cases: functional
Hair follicle [1] = assay: Upregulation of SHH mRNA expression in human hair follicle assessed as fold change at 0.5 uM measured for 48 hrs by qRT-PCR analysis
Hair follicle [2] = assay: Upregulation of PTCH mRNA expression in human hair follicle assessed as fold change at 0.5 uM measured for 48 hrs by qRT-PCR analysis
Hair follicle [3] = assay: Upregulation of Smo mRNA expression in human hair follicle assessed as fold change at 0.5 uM measured for 48 hrs by qRT-PCR analysis
Hair follicle [4] = assay: Upregulation of Gli mRNA expression in human hair follicle assessed as fold change at 0.5 uM measured for 48 hrs by qRT-PCR analysis
Hair follicle [5] = assay: Upregulation of RBPJ mRNA expression in human hair follicle assessed as fold change at 5 ug/ml; conditions: dose 5 µg/ml

O=C(O[C@@H]1Cc2c(O)cc(O)cc2O[C@@H]1c1cc(O)c(O)c(O)c1)c1cc(O)c(O)c(O)c1 [EPIGALOCATECHIN GALLATE]
fold change (FC) (Hair follicle [1]): 4.48
fold change (FC) (Hair follicle [2]): 4.18
fold change (FC) (Hair follicle [3]): 4.71
fold change (FC) (Hair follicle [4]): 1.67
fold change (FC) (Hair follicle [5]): 7
